US7928099B2, “Pyrimido [4,5-D] azepine derivatives as 5-HT2c agonists” (Pfizer Inc, priority 2007, dated 2011)
Structures can show the parent of a compound that is named as a salt.

Experiments:
[1] = target: T1, human recombinant 5-HT2c receptor (Homo sapiens, UniProt P28335); test: 3H-meselurgine radioligand binding SPA, membranes from Swiss 3T3 cells (Method 2); conditions: 3H-meselurgine displacement, Cheng-Prusoff; Swiss 3T3 membranes; read-out: Binding Affinity Ki
T1 construct: expressed in transfected cells; host or cells: CHO K1 (Chinese hamster ovary), stably transfected
T1 sequence (P28335 33-458): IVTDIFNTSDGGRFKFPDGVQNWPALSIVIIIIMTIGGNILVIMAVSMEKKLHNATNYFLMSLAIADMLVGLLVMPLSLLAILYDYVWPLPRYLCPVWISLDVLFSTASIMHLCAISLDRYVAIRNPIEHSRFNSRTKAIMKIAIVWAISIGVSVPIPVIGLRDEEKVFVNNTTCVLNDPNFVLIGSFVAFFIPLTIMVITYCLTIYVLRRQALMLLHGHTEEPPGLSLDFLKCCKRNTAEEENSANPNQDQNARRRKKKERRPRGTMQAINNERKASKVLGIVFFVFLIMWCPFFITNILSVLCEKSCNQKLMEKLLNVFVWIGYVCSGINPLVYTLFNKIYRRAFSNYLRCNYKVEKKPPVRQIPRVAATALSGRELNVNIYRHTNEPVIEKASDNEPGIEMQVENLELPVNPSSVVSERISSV
Protocol: (§1) The compounds of the invention were evaluated for biological activity by measuring the agonist affinity (EC50) and efficacy (Emax) at the human recombinant 5-HT2c receptor expressed in CHO K1 cells, using a fluorescent based Ca^2+ mobilisation assay format compatible with FLIPR technology (Method 1). Additionally, the binding activity of a compound was determined by measuring its affinity for the human recombinant 5-HT2c receptor membranes from Swiss 3T3 cells (Method 2).
The compounds were tested for biological activity by their ability to inhibit binding of the radioligand ^3H-meselurgine at the human recombinant 5-HT2C receptor expressed in the Swiss 3T3 cells using a scintillation proximity assay (SPA) technology.
Swiss 3T3 stably transfected with the 5-HT2C receptor were cultured under standard cell culture techniques. Specifically, cells were grown in 50 mL growth medium (Dulbecco's Modified Eagle's Medium (DMEM) culture media supplemented with 10% dialysed foetal calf serum (FCS), 2 mM penicillin/streptomycin and 20 μg/mL geneticin) in 225 cm^2 flasks at 37° C. and 5% CO2. Cells were grown to 60-80% confluency, harvested using trypsin-EDTA and pelleted by centrifugation for long-term storage at −80° C.
Cell pellets were thawed on ice and resuspended in 3 mL of membrane preparation buffer (see Media and Buffers for composition) per 1 mL of packed cell. The suspension was homogenised on ice for several 5 s intervals using a hand-held homogeniser. The homogenate was then centrifuged at 1,000 rpm for 5 min at 4° C.
The supernatants were then collected and retained. Initial cell & nuclei pellets (P1) were subsequently rehomogenised and centrifuged using the conditions cited above, and the supernatants collected and pooled with those retained from the first spin.
The pooled supernatants were centrifuged at 19,500 rpm for 45 min at 4° C., and the supernatants discarded. The pellets (P2) were then resuspended in 3 mL of membrane preparation buffer per 1 mL of the original packed cell volume. Protein concentrations were subsequently measured and the membrane suspension was finally frozen in aliquots of set volume and stored at −80° C. prior to use in assays.
For each batch of membrane used, optimal concentrations of Polylysine YSi SPA beads and membrane were determined. The assay free radioligand concentration was expressed as a percentage of the total free radioligand concentration to give an estimate of the radioligand depletion.
The affinity of ^3H-meselurgine for the human recombinant 5-HT2c receptor was determined for each membrane batch at the selected protein and bead concentrations. […] The mean KD for ^3H-meselurgine at a batch of membranes was determined from data from a minimum of three separate assays.
The required amount of membrane, was thawed on ice and added to a pre-determined volume of bead suspension in 50 mM HEPES buffer, pH 7.4. The beads were then pre-coupled by incubating the predetermined protein quantity per mg of bead on a roller 4° C. for 1 h. Subsequently, the bead/membrane complex was spun down at 1000 rpm for 5 min. The resulting pellet was resuspended in assay buffer at the specific concentration required for the final assay.
An aliquot of [^3H]-meselurgine stock was diluted in binding assay buffer to give a pre-determined final assay concentration less than the equilibrium dissociation constant (KD) value.
All test compounds were prepared at a concentration of 4 mM in 100% dimethyl sulphoxide (DMSO) from dry samples.
The same volume of assay buffer was added to specific wells of the plate to enable subsequent measurement of total radioligand binding. Furthermore, 5 μL of Mianserin at 25 μM (2.5 μM final assay concentration was subsequently added to pre-determined wells to determine non-specific binding (NSB).

[2] = target: T1, human recombinant 5-HT2c receptor; test: FLIPR fluorescent Ca2+ mobilisation agonist assay in CHO K1 cells (Method 1); type: cell-based; conditions: for EC50: agonist affinity, FLIPR
Protocol: as §1
The agonist affinity of the compounds were tested by measuring their ability to induce a fluorescent based Ca^2+ mobilization signal in a FLIPR assay using CHO K1 cells expressing recombinant human 5-HT2C receptor. Both agonist affinity (EC50) and efficacy (Emax) were determined.
Chinese hamster ovary cells (CHO K1) stably transfected with the 5-HT2c receptor were cultured under standard cell culture techniques. Specifically, cells were grown at 37° C. and 5% CO2 in Dulbecco's Modified Eagle's Medium (DMEM) culture media supplemented with 10% dialysed foetal calf serum (FCS), 1% non-essential amino acids, 1 mM sodium pyruvate, 800 μg/mL geneticin and 50 μg/ml zeocin. Cells were harvested for passaging and storage using trypsin-EDTA, centrifugation and resuspension in culture medium. Cells were grown to 60-80% confluency, harvested and adjusted to 15-20×10^6 cells/ml/vial in medium/10% DMSO and stored long-term at −80° C.
Cells were seeded into black-walled clear-bottomed 384 well plates 24 h before use. Frozen cells were defrosted in a 37° C. water bath and immediately transferred into 1 mL/vial 37° C. culture medium, diluted to 10 ml and DMSO removed by centrifugation. The cells were resuspended in 15 ml/vial of cell culture medium, counted and adjusted to give 500,000 cells/mL (10,000 cells/well). […] of cell suspension was added to the 384 well plates which were then incubated overnight at 37° C.
The maximum agonist response was determined with 5-HT at a final assay concentration of 10 μM in the diluent above. The minimum response was determined with Dulbeccos PBS (+CaCl2, +MgCl2) with 0.9% DMSO and 0.05% pluronic F-127. Test compounds, maximum and minimum controls were added to a 384 well polypropylene plate.
The FLIPR calcium assay reagent was diluted with assay buffer (Hank's Balanced Salt Solution (HBSS))/20 mM HEPES and 2.5 mM probenecid (diluted with 1M Sodium hydroxide and DPBS (+CaCl2, +MgCl2)).
20 μl/well FLIPR calcium assay reagent was added to the cell plates, which were incubated for 1 h at 37° C. Cell plates and compound plates were then transferred onto the FLIPR. The assay was run using the appropriate FLIPR program, which initiates the reaction by transferring 15 μL compound into the corresponding, well of the cell plate.
The statistical parameter exported from each well was the max peak height of the response.

[3] = CHO-K1, efficacy, percentage of mean maximal response to 10 μM 5-HT
[4] = efficacy, percentage of mean maximal response to 10 μM 5-HT

| SMILES | Ki [1] [µM] | Emax [2, 3] [%] | EC50 [2] [µM] | Emax % [2, 4] [%] | Emax [2, 4] [%] |
| --- | --- | --- | --- | --- | --- |
| c1ccc(Cc2nc3c(c(-n4cccn4)n2)CCNCC3)cc1 [Example 1, 2-Benzyl-4-(1H-pyrazol-1-yl)-6,7,8,9-tetrahydro-5H-pyrimido[4,5-d]azepine] | 0.072 | 83.5 | 0.224 | – | – |
| OC1CCCN(c2nc(Cc3ccccc3)nc3c2CCNCC3)C1 (stereo not drawn) [Example 18, 1-(2-benzyl-6,7,8,9-tetrahydro-5H-pyrimido[4,5-d]azepin-4-yl)piperidin-3-ol hydrochloride] | 0.243 | 51.3 | 0.558 | – | – |
| CC(C)[C@@H](CO)Nc1nc(Cc2ccccc2)nc2c1CCNCC2 [Example 24, (2S)-2-[(2-benzyl-6,7,8,9-tetrahydro-5H-pyrimido[4,5-d]azepin-4-yl)amino]-3-methylbutan-1-ol hydrochloride] | 0.0914 | 69.9 | 0.119 | – | – |
| c1ccc(Cc2nc3c(c(NCC4CCCO4)n2)CCNCC3)cc1 (stereo not drawn) [Example 19, 2-benzyl-N-(tetrahydrofuran-2-ylmethyl)-6,7,8,9-tetrahydro-5H-pyrimidol[4,5-d]azepin-4-amine hydrochloride] | 0.0524 | 36.3 | 0.344 | – | – |
| COc1nc(C(F)(F)c2ccccc2)nc2c1CCNCC2 [Example 72, 2-(Difluoro-phenyl-methyl)-4-methoxy-6,7,8,9-tetrahydro-5H-pyrimido[4,5-d]azepine] | 0.0777 | 41.1 | 0.08 | – | – |
| CC(c1ccccc1)c1ncc2c(n1)CCNCC2 (stereo not drawn) [Example 2, 2-(1-Phenylethyl)-6,7,8,9-tetrahydro-5H-pyrimido[4,5-d]azepine] | 0.14 | 84.9 | 0.198 | – | – |
| CN(Cc1ccccc1)c1nc2c(c(N3CCOCC3)n1)CCNCC2 [Example 15, N-benzyl-N-methyl-4-morpholin-4-yl-6,7,8,9-tetrahydro-5H-pyrimido[4,5,d]azepin-2-amine] | 0.181 | – | 0.202 | 64.10 | – |
| OCCNc1nc(Cc2ccccc2)nc2c1CCNCC2 [Example 23, 2-[(2-benzyl-6,7,8,9-tetrahydro-5H-pyrimido[4,5-d]azepin-4-yl)amino]ethanol hydrochloride] | 0.107 | 72.6 | 0.159 | – | – |
| COc1nc(C(F)(F)c2ccccc2)nc2c1CCNCC2 [Example 72A, 2-(Difluoro-phenyl-methyl)-4-methoxy-6,7,8,9-tetrahydro-5H-pyrimido[4,5-d]azepine hydrochloride] | 0.015 | – | 0.0356 | – | 31.9 |
| CO[C@H]1CCN(c2nc(Cc3ccccc3)nc3c2CCNCC3)C1 [Example 26, 2-benzyl-4-[(3S)-3-methoxypyrrolidin-1-yl]-6,7,8,9-tetrahydro-5H-pyrimido[4,5-d]azepine hydrochloride] | 0.229 | 60.9 | 0.417 | – | – |

More lines, main results first:

| Ki [1] [µM] | Emax [2, 3] [%] | EC50 [2] [µM] | Emax % [2, 4] [%] | SMILES | Emax [2, 4] [%] |
| --- | --- | --- | --- | --- | --- |
| 0.0903 | 69 | 0.282 | – | CN(C)c1nc(N(C)CC2CC2)nc2c1CCNCC2 [Example 104, N-2-(cyclopropylmethyl)-N-2,N-4,N-4-trimethyl-6,7,8,9-tetrahydro-5H-pyrimido[4,5-d]azepine-2,4-diamine] | – |
| 0.244 | 83.9 | 0.211 | – | Cc1cccc(Cc2ncc3c(n2)CCNCC3)c1 [Example 65, 2-(3-Methylbenzyl)-6,7,8,9-tetrahydro-5H-pyrimido[4,5-d]azepine] | – |
| 0.696 | 30.6 | 0.516 | – | c1ccc(Cc2nc3c(c(NC4CCOC4)n2)CCNCC3)cc1 (stereo not drawn) [Example 39, 2-benzyl-N-(tetrahydrofuran-3-yl)-6,7,8,9-tetrahydro-5H-pyrimido[4,5-d]azepin-4-amine hydrochloride] | – |
| 0.978 | 76 | 0.643 | – | OC(c1ccccc1)c1ncc2c(n1)CCNCC2 (single isomer, unassigned; stereoisomer 1) [Example 70, Phenyl-(6,7,8,9-tetrahydro-5H-pyrimido[4,5-d]azepin-2-yl)-methanol dihydrochloride (Stereoisomer 1)] | – |
| 0.0493 | 33.1 | 0.107 | – | CCOc1nc(C(C)c2ccccc2)nc2c1CCNCC2 (stereo not drawn) [Example 59, 4-Ethoxy-2-(1-phenylethyl)-6,7,8,9-tetrahydro-5H-pyrimido[4,5-d]azepine] | – |
| 0.0284 | 88.4 | 0.0695 | – | C[C@H]1COCCN1c1nc(Cc2ccccc2)nc2c1CCNCC2 [Example 45, 2-benzyl-4-[(3S)-3-methylmorpholin-4-yl]-6,7,8,9-tetrahydro-5H-pyrimido[4,5-d]azepine hydrochloride] | – |
| 0.0254 | 35 | 0.0572 | – | c1ccc(Cc2nc3c(c(NCCn4cccn4)n2)CCNCC3)cc1 [Example 27, 2-benzyl-N-[2-(1H-pyrazol-1-yl)ethyl]-6,7,8,9-tetrahydro-5H-pyrimido[4,5-d]azepin-4-amine hydrochloride] | – |
| 0.38 | 72.6 | 0.263 | – | c1ccc(Cc2nc3c(c(-n4ccnc4)n2)CCNCC3)cc1 [Example 55, 2-Benzyl-4-imidazol-1-yl-6,7,8,9-tetrahydro-5H-pyrimido[4,5-d]azepine] | – |
| 0.304 | 70.5 | 0.332 | – | Cc1ccccc1Cc1ncc2c(n1)CCNCC2 [Example 66, 2-(2-Methylbenzyl)-6,7,8,9-tetrahydro-5H-pyrimido[4,5-d]azepine] | – |
